Assay results from article PMC9022229, “Induction of Paraptosis by Cyclometalated Iridium Complex-Peptide Hybrids and CGP37157 via a Mitochondrial Ca^2+ Overload Triggered by Membrane Fusion between Mitochondria and the Endoplasmic Reticulum” (Biochemistry, 2022).

Assays:
Jurkat cells [1] = assay: Mitochondria-ER membrane fusion, co-staining with MitoTracker Green and ER-Tracker Red; format: cell-based; details: celastrol 1 μM, 12 h
Method: To verify this hypothesis, mitochondria and the ER were stained with both MitoTracker Green and ER-Tracker Red in the presence of 4, CGP37157, and celastrol (Figure 8). Jurkat cells were stained with MitoTracker Green (0.5 μM) and ER-Tracker Red (1 μM) and then treated with 4 (5 μM) for 10–30 min (time-dependent microscopic images are presented in Figure S5). […] With regard to CGP37157 and celastrol, Jurkat cells were stained with MitoTracker Green (0.5 μM) and ER-Tracker Red (1 μM) and then treated with CGP37157 (100 μM) and celastrol (1 μM) for 1–24 h (Figure 8 and Figure S5).
In a 1.5 mL Eppendorf tube, Jurkat cells (2.0 × 10^5 cells) were stained with MitoTracker Green (0.5 μM) for 1 h at 37 °C under 5% CO2 and then ER-Tracker Red (1 μM) for 1 h at 37 °C under 5% CO2 in 10% FBS/RPMI 1640 medium (100 μL). After being washed with PBS, the cells were treated with 4 (5 μM) in 10% FBS/RPMI 1640 medium (100 μL) for 0–30 min at 37 °C under 5% CO2. For CGP37157 and celastrol, Jurkat cells were treated with CGP37157 (100 μM) or celastrol (1 μM) in 10% FBS/RPMI 1640 medium (100 μL) for 0–24 h, after which the cells were stained with MitoTracker Green (0.5 μM) for 1 h at 37 °C under 5% CO2 and then ER-Tracker Red (1 μM) for 1 h at 37 °C under 5% CO2 in PBS. The cells were washed with PBS and observed by confocal microscopy (Fluoview, FV-1000, Olympus) using a Greiner CELLview dish (35 mm × 10 mm). Excitation at 473 nm and emission from 485 to 545 nm were used for MitoTracker Green. Excitation at 559 nm and emission from 570 to 620 nm were used for ER-Tracker Red. The exposure time was 20 μs/pixel.

mitofusin 1 (MFN1) = assay: Western blot analysis of MFN1 in Jurkat cells; format: cell-based; details: for MFN1 band intensity relative to absence of compound: Figure S8C, 24 h
Method: (§1) In a 1.5 mL Eppendorf tube, Jurkat cells (1.0 × 10^6 cells) were incubated in the presence of 4 ([…]), CGP37157 (100 μM for 0–24 h or 0–100 μM for 12 h), and celastrol (0–10 μM for 24 h or 1 μM for 0–24 h) at 37 °C under 5% CO2. After the cells had been washed twice with PBS, the proteins were extracted by using RIPA buffer (Nacalai Tesque) and quantified using a Pierce BCA Protein Assay Kit (Thermo Scientific). Proteins (7.5 μg/well) for MFNs and DRP1 and proteins (5.0 μg/well) for GAPDH were used for sodium dodecyl sulfate–polyacrylamide gel electrophoresis (SDS–PAGE) (7.5% for MFNs and DRP1 and 10% for GAPDH) (Bio-Rad). After SDS–PAGE, the proteins were transferred to a polyvinylidene fluoride membrane (Merck Millipore) by using a semi dry blotter (Bio-Rad). The membrane was blocked with Blocking One solution (Nacalai Tesque) for 30 min at room temperature. After being blocked, the membrane was washed three times with 1× TBST and treated with primary antibodies overnight (at a dilution of 1/1000 for MFNs and DRP1 or 1/2000 for GAPDH) in a signal enhancer HIKARI-solution A (Nacalai Tesque). The membrane was washed three times with 1× TBST and treated with the anti-mouse or anti-rabbit IgG HRP-conjugated secondary antibody (at a dilution of 1/4000 for MFNs and DRP1 or 1/10000 for GAPDH) in 1× TBST for 60 min at room temperature. The protein signal was spotted with a Chemi-Lumi One Ultra solution (Nacalai Tesque) using the ChemiDoc MP system (Bio-Rad). […]

Jurkat cells [2] = assay: TEM analysis of cytoplasmic vacuolization; format: cell-based; details: celastrol 1 μM, 24 h
Method: The morphological changes in Jurkat cells induced by CGP37157 (Figure 3B) were similar to those induced by 4 (Figure 1B) and confirmed in detail by TEM (transmission electron microscopy). Jurkat cells were treated with CGP37157 (100 μM) for 12 h, prefixed with glutaraldehyde and postfixed with osmium tetroxide (OsO4), and included in Poly 812 resin. The resulting samples were sliced and then observed by TEM. […] Similar TEM images were reported with respect to paraptosis-inducing natural compounds by some research groups: (i) paraptosis in MDA-MB 435S cells,[17] HeLa cells,[18] and Jurkat cells (Figure 4d and in our previous publications)[56]−[58] induced by celastrol, (ii) paraptosis in HeLa cells induced by 8-p-hydroxybenzoyl tovarol,[23] and (iii) paraptosis in A2780 cells and SKOV-3 cells induced by morusin.[22] Therefore, we believe that Jurkat cells undergo vacuolization in the paraptotic processes induced by 4 and CGP37157, as well as celastrol.
In a 1.5 mL Eppendorf tube, Jurkat cells (3.0 × 10^6 cells) were incubated with 4 (5 μM for 3 h), CGP37157 (100 μM for 12 h), and celastrol (1 μM for 24 h) in 10% FBS/RPMI 1640 medium at 37 °C under 5% CO2. After centrifugation (2000 rpm, 3 min, 4 °C), the cells were washed twice with PBS, prefixed with glutaraldehyde (2.5%) at 4 °C for 40 min, and then washed twice with PBS. Osmium tetroxide (1%) was used for postfixation, and the solution was incubated at 4 °C for 30 min. The cells were washed with PBS, included in an agarose gel, and dehydrated by using 50–100% and anhydrous EtOH. The cells were embedded into Poly 812 resin (Nisshin EM Co. Ltd.) at 60 °C for 3 days. The resin was sliced with a glass knife (150 nm thickness) on an ultramicrotome (EM UC6, Leica), and the samples were stained with EM stainer (Nisshin EM Co. Ltd.) and observed on TEM instrument (H-7650, Hitachi) with electron irradiation at 100 kV.

[3] = system: MFN1- and/or MFN2-KD Jurkat cells; assay: MTT assay of MFN1- and/or MFN2-KD Jurkat cells; format: cell-based; details: siRNA 10 nM, celastrol 1 µM, 12 h, three independent experiments
Method: The roles of MFNs in the cell death induced by 4 and CGP37157 were examined by using small interfering RNA (siRNA) for MFN1 and MFN2 to knock down (KD) these proteins. […] The cytotoxicity of 4 and CGP37157 against MFN1- and/or MFN2-KD Jurkat cells was evaluated by MTT assays. […] The effect of a negative control siRNA (NCsiRNA) on the expression levels of MFNs and the cell viability of Jurkat cells was negligible, implying that MFNs are […] to the paraptosis induced by 4 and CGP37157. It should be noted that the treatment with siRNA at 5 nM for 72 h was toxic against Jurkat cells in the presence of 4 and CGP37157, although the efficiency of knockdown of these proteins by siRNA could be improved by increasing the incubation time, as shown in Figure S11.
To a solution of transfection reagent (INTERFERin, 5 μL) in OPTI-MEM (0.3 mL) in a 1.5 mL Eppendorf tube was added siRNA (10 μM, 1 or 2 μL) in H2O, and the resulting solution was allowed to stand for 15 min at room temperature. The resulting solution was then added to Jurkat cells (2.0 × 10^5 cells/mL, 1.5 mL) in 10% FBS/RPMI 1640 medium that had been seeded on a 12-well plate and incubated overnight at 37 °C under 5% CO2 (the final concentration of siRNA was 5 or 10 nM), and the resulting solution was incubated for 48 or 72 h at 37 °C under 5% CO2. The cells were collected by centrifugation (2000 rpm, 3 min, 4 °C), and the expression levels of MFNs were evaluated by Western blot analysis as described above. The cytotoxicity of 4 (3 or 5 μM), CGP37157 (50 or 100 μM), and celastrol (1 μM) against MFNs-KD Jurkat cells was evaluated by MTT assays as described above.

[4] = system: dynamin-related protein 1 (DRP1); assay: Western blot analysis of DRP1 in Jurkat cells; format: cell-based; details: for DRP1 band intensity relative to absence of compound: Figure S8C, 24 h
Method: In a 1.5 mL Eppendorf tube, Jurkat cells (1.0 × 10^6 cells) were incubated in the presence of 4 ([…]), CGP37157 (100 μM for 0–24 h or 0–100 μM for 12 h), and celastrol (0–10 μM for 24 h or 1 μM for 0–24 h) at 37 °C under 5% CO2. After the cells had been washed twice with PBS, the proteins were extracted by using RIPA buffer (Nacalai Tesque) and quantified using a Pierce BCA Protein Assay Kit (Thermo Scientific). Proteins (7.5 μg/well) for MFNs and DRP1 and proteins (5.0 μg/well) for GAPDH were used for sodium dodecyl sulfate–polyacrylamide gel electrophoresis (SDS–PAGE) (7.5% for MFNs and DRP1 and 10% for GAPDH) (Bio-Rad). After SDS–PAGE, the proteins were transferred to a polyvinylidene fluoride membrane (Merck Millipore) by using a semi dry blotter (Bio-Rad). The membrane was blocked with Blocking One solution (Nacalai Tesque) for 30 min at room temperature. After being blocked, the membrane was washed three times with 1× TBST and treated with primary antibodies overnight (at a dilution of 1/1000 for MFNs and DRP1 or 1/2000 for GAPDH) in a signal enhancer HIKARI-solution A (Nacalai Tesque). The membrane was washed three times with 1× TBST and treated with the anti-mouse or anti-rabbit IgG HRP-conjugated secondary antibody (at a dilution of 1/4000 for MFNs and DRP1 or 1/10000 for GAPDH) in 1× TBST for 60 min at room temperature. The protein signal was spotted with a Chemi-Lumi One Ultra solution (Nacalai Tesque) using the ChemiDoc MP system (Bio-Rad).

mitofusin 2 (MFN2) = assay: Western blot analysis of MFN2 in Jurkat cells; format: cell-based; details: for MFN2 band intensity relative to absence of compound: Figure S8C, 24 h
Method: as §1

Jurkat cells [5] = details: for Effect of PCD inhibitor on cell death induced by CGP37157: Z-VAD-fmk 30 μM, Nec-1 30 μM, 3-MA 5 mM, CGP37157 100 µM, 12 h, three independent experiments; for Effect of PCD inhibitor on cell death induced by CGP37157 / Effect of Ca2+ channel inhibitor on cell death induced by celastrol / Effect of GTPase inhibitor on cytotoxicity by 4 / Effect of GTPase inhibitor on cytotoxicity by CGP37157: MTT; for Effect of Ca2+ channel inhibitor on cell death induced by 4 / Effect of Ca2+ channel inhibitor on cell death induced by celastrol: inhibitor 1 h (2-APB 50 μM, RuRed 10 μM, ER-000444793 10 μM); for Effect of Ca2+ channel inhibitor on cell death induced by 4: then 4 5 μM 3 h, microscopy and MTT; for Effect of Ca2+ channel inhibitor on cell death induced by celastrol: then celastrol 1 μM 12 h; for Effect of GTPase inhibitor on cytotoxicity by 4 / Effect of GTPase inhibitor on cytotoxicity by CGP37157: inhibitor 1 h (dynasore, Mdivi-1 10–30 μM, CID1067700 1–10 μM); for Effect of GTPase inhibitor on cytotoxicity by 4: then 4 5 μM 1 or 3 h; for Effect of GTPase inhibitor on cytotoxicity by CGP37157: then CGP37157 100 μM 12 h
[6] = celastrol 1 μM 0–24 h or 0–10 μM 24 h

With `CC1=C(O)C(=O)C=C2C1=CC=C1[C@@]2(C)CC[C@@]2(C)[C@@H]3C[C@](C)(C(=O)O)CC[C@]3(C)CC[C@]12C` [celastrol] the “Overlap of MitoTracker Green and ER-Tracker Red emission (mitochondria-ER membrane fusion)” value (Jurkat cells [1]) was “negligible”, the “MFN1 band intensity relative to absence of compound” value (mitofusin 1 (MFN1); celastrol 1 µM) was 0.56 and the “MFN1 band intensity relative to absence of compound” value (mitofusin 1 (MFN1); celastrol 2 µM) was 0.51. The “MFN1 band intensity relative to absence of compound” value (mitofusin 1 (MFN1); celastrol 5 µM) was 0.45, the “MFN1 band intensity relative to absence of compound” value (mitofusin 1 (MFN1); celastrol 8 µM) was 0.43 and the “MFN1 band intensity relative to absence of compound” value (mitofusin 1 (MFN1); celastrol 10 µM) was 0.37. The “Expression level of MFN1 (Figure 11C, S8C)” value (mitofusin 1 (MFN1); [6]) was “decreased”, the “Morphological change by TEM” value (Jurkat cells [2]) was “cytoplasmic vacuolization” and the “Effect of knockdown of MFNs on cell death induced by the compound” value [3] was “negligible effect”. The “DRP1 band intensity relative to absence of compound” value ([4]; celastrol 1 µM) was 0.92, the “DRP1 band intensity relative to absence of compound” value ([4]; celastrol 2 µM) was 0.81 and the “DRP1 band intensity relative to absence of compound” value ([4]; celastrol 5 µM) was 0.44. For the same compound, the “DRP1 band intensity relative to absence of compound” value ([4]; celastrol 8 µM) was 0.20, the “DRP1 band intensity relative to absence of compound” value ([4]; celastrol 10 µM) was 0.19 and the “Expression level of DRP1 (Figure 11C, S8C)” value [4, 6] was “decreased”. The “MFN2 band intensity relative to absence of compound” value (mitofusin 2 (MFN2); celastrol 1 µM) was 0.29, the “MFN2 band intensity relative to absence of compound” value (mitofusin 2 (MFN2); celastrol 2 µM) was 0.21 and the “MFN2 band intensity relative to absence of compound” value (mitofusin 2 (MFN2); celastrol 5 µM) was 0.21. The “MFN2 band intensity relative to absence of compound” value (mitofusin 2 (MFN2); celastrol 8 µM) was 0.22, the “MFN2 band intensity relative to absence of compound” value (mitofusin 2 (MFN2); celastrol 10 µM) was 0.15 and the “Expression level of MFN2 (Figure 11C, S8C)” value (mitofusin 2 (MFN2); [6]) was “decreased”.

`CN1C(=O)C(Cc2c[nH]c3ccccc23)NC1=S` (stereo not shown) [necrostatin-1] was tested, and the “Effect of PCD inhibitor on cell death induced by CGP37157” value (from here on “Effect of PCD inhibitor”) (Jurkat cells [5]) was “negligible inhibition”.

In the case of `O=C(Nc1ccccc1Cc1ccccc1)c1cc(=O)[nH]c2ccccc12` [ER-000444793], the “Effect of Ca2+ channel inhibitor on cell death induced by 4” value (“Effect of Ca2+ channel inhibitor … by 4” below) (Jurkat cells [5]) is reported as “negligible inhibitory effects” and the “Effect of Ca2+ channel inhibitor on cell death induced by celastrol” value (Jurkat cells [5]) is reported as “negligible inhibitory effects”.

In the case of `N.N.N.N.N.N.N.N.N.N.N.N.N.N.[Cl-].[Cl-].[Cl-].[Cl-].[Cl-].[Cl-].[O-2].[O-2].[Ru+3].[Ru+3].[Ru+4]` [RuRed, ruthenium red], the “Effect of Ca2+ channel inhibitor … by 4” value (Jurkat cells [5]) is reported as “negligible inhibitory effects” and the “Effect of Ca2+ channel inhibitor on cell death induced by celastrol” value (Jurkat cells [5]) is reported as “negligible inhibitory effects”.

In the case of `NCCOB(c1ccccc1)c1ccccc1` [2-APB, 2-Aminoethoxydiphenyl borate], the “Effect of Ca2+ channel inhibitor … by 4” value (Jurkat cells [5]) is reported as “negligible inhibitory effects” and the “Effect of Ca2+ channel inhibitor on cell death induced by celastrol” value (Jurkat cells [5]) is reported as “negligible inhibitory effects”.

With “Benzyloxycarbonyl-Val-Ala-Asp(OMe) fluoromethylketone [Z-VAD-fmk]” the “Effect of PCD inhibitor” value (Jurkat cells [5]) was “weakly inhibited”.

With `CC1(C)Cc2c(sc(NC(=S)NC(=O)c3ccccc3)c2C(=O)O)CO1` [CID1067700] the “Effect of GTPase inhibitor on cytotoxicity by 4” value (Jurkat cells [5]) was “negligible effect” and the “Effect of GTPase inhibitor on cytotoxicity by CGP37157” value (Jurkat cells [5]) was “negligible effect”.

In the case of `Cn1cnc(N)c2ncnc1-2` [3-methyladenine], the “Effect of PCD inhibitor” value (Jurkat cells [5]) is reported as “negligible inhibition”.

For `COc1cc(-n2c(=S)[nH]c3ccccc3c2=O)c(Cl)cc1Cl` [Mdivi-1], the “Effect of GTPase inhibitor on cytotoxicity by 4” value (Jurkat cells [5]) was “negligible effect” and the “Effect of GTPase inhibitor on cytotoxicity by CGP37157” value (Jurkat cells [5]) was “negligible effect”.
